Test results from patent US20240270720A1, “INDAZOLE YL BENZIMIDAZOLE DERIVATIVE OR PHARMACEUTICALLY ACCEPTABLE SALT THEREOF, AND USE THEREOF” (INDUSTRY-UNIVERSITY COOPERATION FOUNDATION HANYANG …, priority 2021, published 2024).

Tests used:
[1] = target: FLT3 (ITD)-NPOS (Homo sapiens, UniProt P36888); assay: Kinase HotSpot radiometric kinase assay (Reaction Biology); format: biochemical; details: single dose 1 μM
Protocol: Reaction Biology Corp. Kinase HotSpot SM service (www.reactionbiology.com) was used to determine IC50 values for all compounds and kinase profiles. […] The reaction was initiated by adding the Mg-ATP mixture. After incubation at room temperature for 40 minutes, the reaction was stopped by adding 5 μL of a 3% phosphoric acid solution. Thereafter, 10 μL of the reactant was spotted on a P30 filter mat and washed three times for 5 minutes in 75 mM phosphoric acid and once in methanol before drying and scintillation counting.

[2] = target: T1, FLT3 (R595_E596 ins EY) (Homo sapiens, UniProt P36888, INS595EY); assay: as above; format: biochemical
T1 construct: purchased Reaction Biology Corp. (Kinase HotSpot service)
Protocol: (§1) Reaction Biology Corp. Kinase HotSpot SM service (www.reactionbiology.com) was used to determine IC50 values for all compounds and kinase profiles. The analysis protocol was as follows: In a final reaction volume of 25 μL, a peptide substrate, [[sequence]], 5 μM, ATP 10 μM, and FLT3(h) (5 to 10 mU) were incubated with 25 mM Tris pH 7.5, 0.02 mM EGTA, 0.66 mg/mL myelin basic protein, 10 mM Mg acetate and [γ-33P-ATP] (a concentration of approximately 500 cpm/pmol was required for specific activity). The reaction was initiated by adding the Mg-ATP mixture. After incubation at room temperature for 40 minutes, the reaction was stopped by adding 5 μL of a 3% phosphoric acid solution. Thereafter, 10 μL of the reactant was spotted on a P30 filter mat and washed three times for 5 minutes in 75 mM phosphoric acid and once in methanol before drying and scintillation counting.

[3] = target: T2, FLT3 (Y591_V592 ins VDFREYEYD) (Homo sapiens, UniProt P36888, INS591VDFREYEYD); assay: as above; format: biochemical
T2 construct: purchased Reaction Biology Corp. (Kinase HotSpot service)
Protocol: as §1

[4] = target: FLT3-ITD (Homo sapiens, UniProt P36888); assay: Protein kinase profiling (Kinase HotSpot); format: biochemical; details: single dose 1 μM
[5] = target: T3, ABL1 (Homo sapiens, UniProt P00519); assay: Protein kinase profiling (Kinase HotSpot); format: biochemical
T3 construct: purchased Reaction Biology Corp. (Kinase HotSpot service)
Protocol: as §1

[6] = target: T4, AKT1 (Homo sapiens, UniProt P31749); assay: Protein kinase profiling (Kinase HotSpot); format: biochemical; details: single dose 1 μM
T4 construct: purchased Reaction Biology Corp. (Kinase HotSpot service)
Protocol: as §1

[7] = target: T5, ALK (Homo sapiens, UniProt Q9UM73); assay: Protein kinase profiling (Kinase HotSpot); format: biochemical; details: single dose 1 μM
T5 construct: purchased Reaction Biology Corp. (Kinase HotSpot service)
Protocol: as §1

[8] = target: T6, AXL (Homo sapiens, UniProt P30530); assay: Protein kinase profiling (Kinase HotSpot); format: biochemical; details: single dose 1 μM
T6 construct: purchased Reaction Biology Corp. (Kinase HotSpot service)
Protocol: as §1

[9] = target: T7, AXL (R499C) (Homo sapiens, UniProt P30530, R499C); assay: Protein kinase profiling (Kinase HotSpot); format: biochemical; details: single dose 1 μM
T7 construct: purchased Reaction Biology Corp. (Kinase HotSpot service)
Protocol: as §1

[10] = target: T8, BRAF (V599E) (Homo sapiens, UniProt P15056, V600E); assay: Protein kinase profiling (Kinase HotSpot); format: biochemical
T8 construct: purchased Reaction Biology Corp. (Kinase HotSpot service)
Protocol: as §1

[11] = target: T9, BTK (Homo sapiens, UniProt Q06187); assay: Protein kinase profiling (Kinase HotSpot); format: biochemical; details: single dose 1 μM
T9 construct: purchased Reaction Biology Corp. (Kinase HotSpot service)
Protocol: as §1

[12] = target: T10, c-MER (Homo sapiens, UniProt Q12866); assay: Protein kinase profiling (Kinase HotSpot); format: biochemical; details: single dose 1 μM
T10 construct: purchased Reaction Biology Corp. (Kinase HotSpot service)
Protocol: (§2) The analysis protocol was as follows: In a final reaction volume of 25 μL, a peptide substrate, [[sequence]], 5 μM, ATP 10 μM, and FLT3(h) (5 to 10 mU) were incubated with 25 mM Tris pH 7.5, 0.02 mM EGTA, 0.66 mg/mL myelin basic protein, 10 mM Mg acetate and [γ-33P-ATP] (a concentration of approximately 500 cpm/pmol was required for specific activity). The reaction was initiated by adding the Mg-ATP mixture. After incubation at room temperature for 40 minutes, the reaction was stopped by adding 5 μL of a 3% phosphoric acid solution. Thereafter, 10 μL of the reactant was spotted on a P30 filter mat and washed three times for 5 minutes in 75 mM phosphoric acid and once in methanol before drying and scintillation counting.

[13] = target: T11, c-MET (Homo sapiens, UniProt P08581); assay: Protein kinase profiling (Kinase HotSpot); format: biochemical; details: single dose 1 μM
T11 construct: purchased Reaction Biology Corp. (Kinase HotSpot service)
Protocol: as §2

[14] = target: T12, c-Src (Homo sapiens, UniProt P12931); assay: Protein kinase profiling (Kinase HotSpot); format: biochemical; details: single dose 1 μM
T12 construct: purchased Reaction Biology Corp. (Kinase HotSpot service)
Protocol: as §2

[15] = target: T13, CAMKK1 (Homo sapiens, UniProt Q8N5S9); assay: Protein kinase profiling (Kinase HotSpot); format: biochemical
T13 construct: purchased Reaction Biology Corp. (Kinase HotSpot service)
Protocol: as §1

[16] = target: T14, EGFR (Homo sapiens, UniProt P00533); assay: Protein kinase profiling (Kinase HotSpot); format: biochemical; details: single dose 1 μM
T14 construct: purchased Reaction Biology Corp. (Kinase HotSpot service)
Protocol: as §2

[17] = target: T15, ERK1 (Homo sapiens, UniProt P27361); assay: Protein kinase profiling (Kinase HotSpot); format: biochemical
T15 construct: purchased Reaction Biology Corp. (Kinase HotSpot service)
Protocol: as §2

[18] = target: T16, FMS (Homo sapiens, UniProt P07333); assay: Protein kinase profiling (Kinase HotSpot); format: biochemical; details: single dose 1 μM
T16 construct: purchased Reaction Biology Corp. (Kinase HotSpot service)
Protocol: as §1

[19] = target: T17, IGF1R (Homo sapiens, UniProt P08069); assay: Protein kinase profiling (Kinase HotSpot); format: biochemical; details: single dose 1 μM
T17 construct: purchased Reaction Biology Corp. (Kinase HotSpot service)
Protocol: as §1

[20] = target: T18, KDR/VEGFR2 (Homo sapiens, UniProt P35968); assay: Protein kinase profiling (Kinase HotSpot); format: biochemical; details: single dose 1 μM
T18 construct: purchased Reaction Biology Corp. (Kinase HotSpot service)
Protocol: as §2

[21] = target: T19, LCK (Homo sapiens, UniProt P06239); assay: Protein kinase profiling (Kinase HotSpot); format: biochemical; details: single dose 1 μM
T19 construct: purchased Reaction Biology Corp. (Kinase HotSpot service)
Protocol: as §2

[22] = target: T20, MEK1 (Homo sapiens, UniProt Q02750); assay: Protein kinase profiling (Kinase HotSpot); format: biochemical; details: single dose 1 μM
T20 construct: purchased Reaction Biology Corp. (Kinase HotSpot service)
Protocol: as §2

[23] = target: T21, PLK1 (Homo sapiens, UniProt P53350); assay: Protein kinase profiling (Kinase HotSpot); format: biochemical; details: single dose 1 μM
T21 construct: purchased Reaction Biology Corp. (Kinase HotSpot service)
Protocol: as §2

[24] = target: T22, RON/MST1R (Homo sapiens, UniProt Q04912); assay: Protein kinase profiling (Kinase HotSpot); format: biochemical; details: single dose 1 μM
T22 construct: purchased Reaction Biology Corp. (Kinase HotSpot service)
Protocol: as §2

[25] = target: T23, SYK (Homo sapiens, UniProt P43405); assay: Protein kinase profiling (Kinase HotSpot); format: biochemical; details: single dose 1 μM
T23 construct: purchased Reaction Biology Corp. (Kinase HotSpot service)
Protocol: as §2

[26] = target: T24, TRKC (Homo sapiens, UniProt Q16288); assay: Protein kinase profiling (Kinase HotSpot); format: biochemical
T24 construct: purchased Reaction Biology Corp. (Kinase HotSpot service)
Protocol: as §1

[27] = target: T25, TYRO3/SKY (Homo sapiens, UniProt Q06418); assay: Protein kinase profiling (Kinase HotSpot); format: biochemical; details: single dose 1 μM
T25 construct: purchased Reaction Biology Corp. (Kinase HotSpot service)

[28] = tested on: most other kinases; assay: Protein kinase profiling, 42 different kinases (summary); format: biochemical; details: 1 μM; kinases of the 42-kinase panel other than FLT3
[29] = target: Aurora A (Homo sapiens, UniProt O14965); assay: Protein kinase profiling (Kinase HotSpot)
Protocol: as §1

[30] = target: c-Kit (Homo sapiens, UniProt P10721); assay: Protein kinase profiling (Kinase HotSpot)
Protocol: as §1

[31] = target: FGFR3 (Homo sapiens, UniProt P22607); assay: Protein kinase profiling (Kinase HotSpot)
Protocol: as §1

[32] = target: FYN (Homo sapiens, UniProt P06241); assay: Protein kinase profiling (Kinase HotSpot)
Protocol: as §1

[33] = target: GSK3b (Homo sapiens, UniProt P49841); assay: Protein kinase profiling (Kinase HotSpot)
Protocol: as §1

[34] = target: JAK3 (Homo sapiens, UniProt P52333); assay: Protein kinase profiling (Kinase HotSpot)
Protocol: as §2

[35] = target: LYN (Homo sapiens, UniProt P07948); assay: Protein kinase profiling (Kinase HotSpot)
Protocol: as §2

[36] = target: PKA (Homo sapiens, UniProt P17612); assay: Protein kinase profiling (Kinase HotSpot)
Protocol: as §2

[37] = target: ROS/ROS1 (Homo sapiens, UniProt P08922); assay: Protein kinase profiling (Kinase HotSpot)
Protocol: as §2

Sequence of c-Kit (P10721 26-976): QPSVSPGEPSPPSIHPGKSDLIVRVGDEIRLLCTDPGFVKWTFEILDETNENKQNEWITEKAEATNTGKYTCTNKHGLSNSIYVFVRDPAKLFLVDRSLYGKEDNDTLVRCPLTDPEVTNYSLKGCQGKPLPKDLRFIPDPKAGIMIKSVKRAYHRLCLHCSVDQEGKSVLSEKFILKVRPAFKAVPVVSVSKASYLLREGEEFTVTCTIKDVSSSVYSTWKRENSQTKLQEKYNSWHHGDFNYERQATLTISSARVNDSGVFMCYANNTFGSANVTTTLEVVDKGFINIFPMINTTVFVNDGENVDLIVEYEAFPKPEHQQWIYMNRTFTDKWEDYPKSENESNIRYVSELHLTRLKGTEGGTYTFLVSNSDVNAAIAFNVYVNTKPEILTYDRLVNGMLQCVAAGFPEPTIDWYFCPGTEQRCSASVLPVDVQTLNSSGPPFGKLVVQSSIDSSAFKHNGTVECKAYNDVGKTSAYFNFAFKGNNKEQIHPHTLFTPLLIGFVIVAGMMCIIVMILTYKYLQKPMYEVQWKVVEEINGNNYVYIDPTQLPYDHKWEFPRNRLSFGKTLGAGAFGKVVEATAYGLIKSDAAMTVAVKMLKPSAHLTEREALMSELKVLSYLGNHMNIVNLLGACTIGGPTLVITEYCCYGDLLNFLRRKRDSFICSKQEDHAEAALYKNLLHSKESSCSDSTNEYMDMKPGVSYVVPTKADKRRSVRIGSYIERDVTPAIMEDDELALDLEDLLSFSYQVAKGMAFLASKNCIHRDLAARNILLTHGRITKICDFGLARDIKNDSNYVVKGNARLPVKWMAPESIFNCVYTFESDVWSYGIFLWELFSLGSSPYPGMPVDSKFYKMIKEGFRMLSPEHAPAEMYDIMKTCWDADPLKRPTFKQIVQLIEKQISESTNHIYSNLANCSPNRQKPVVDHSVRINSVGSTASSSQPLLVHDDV
T24 sequence (Q16288 32-839): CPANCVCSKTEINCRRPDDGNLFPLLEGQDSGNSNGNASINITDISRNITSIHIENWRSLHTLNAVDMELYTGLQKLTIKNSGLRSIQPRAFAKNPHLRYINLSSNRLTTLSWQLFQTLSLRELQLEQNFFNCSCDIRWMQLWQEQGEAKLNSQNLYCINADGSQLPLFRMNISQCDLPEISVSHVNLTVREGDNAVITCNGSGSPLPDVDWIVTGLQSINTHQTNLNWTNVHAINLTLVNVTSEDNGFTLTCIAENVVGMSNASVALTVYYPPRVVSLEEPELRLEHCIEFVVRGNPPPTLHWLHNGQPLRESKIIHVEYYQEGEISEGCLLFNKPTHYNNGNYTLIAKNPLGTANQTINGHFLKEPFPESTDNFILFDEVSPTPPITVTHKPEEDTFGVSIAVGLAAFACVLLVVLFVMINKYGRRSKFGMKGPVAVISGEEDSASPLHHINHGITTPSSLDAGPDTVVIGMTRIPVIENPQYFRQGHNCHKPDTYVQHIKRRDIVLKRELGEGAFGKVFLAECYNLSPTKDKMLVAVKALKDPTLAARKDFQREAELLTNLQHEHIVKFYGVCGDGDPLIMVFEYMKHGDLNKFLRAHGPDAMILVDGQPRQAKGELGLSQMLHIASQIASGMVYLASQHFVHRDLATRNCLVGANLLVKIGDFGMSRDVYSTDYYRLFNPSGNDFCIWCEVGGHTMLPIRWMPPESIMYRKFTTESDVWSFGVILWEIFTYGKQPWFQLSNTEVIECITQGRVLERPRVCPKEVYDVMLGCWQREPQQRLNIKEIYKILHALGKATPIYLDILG
T13 sequence (Q8N5S9 whole entry): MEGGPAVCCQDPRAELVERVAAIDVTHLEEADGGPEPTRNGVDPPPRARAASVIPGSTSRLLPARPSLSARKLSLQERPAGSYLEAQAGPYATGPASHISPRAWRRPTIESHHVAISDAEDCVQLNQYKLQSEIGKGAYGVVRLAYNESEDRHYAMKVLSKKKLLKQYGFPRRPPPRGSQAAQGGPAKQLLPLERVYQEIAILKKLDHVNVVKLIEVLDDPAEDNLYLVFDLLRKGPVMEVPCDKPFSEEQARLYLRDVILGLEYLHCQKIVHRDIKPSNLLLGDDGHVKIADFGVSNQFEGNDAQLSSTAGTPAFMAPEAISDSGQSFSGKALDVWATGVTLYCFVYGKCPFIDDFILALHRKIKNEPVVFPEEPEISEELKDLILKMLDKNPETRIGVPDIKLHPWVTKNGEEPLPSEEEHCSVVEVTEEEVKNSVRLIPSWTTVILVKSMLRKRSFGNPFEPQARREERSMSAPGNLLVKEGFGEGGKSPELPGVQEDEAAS
T3 sequence (P00519 whole entry): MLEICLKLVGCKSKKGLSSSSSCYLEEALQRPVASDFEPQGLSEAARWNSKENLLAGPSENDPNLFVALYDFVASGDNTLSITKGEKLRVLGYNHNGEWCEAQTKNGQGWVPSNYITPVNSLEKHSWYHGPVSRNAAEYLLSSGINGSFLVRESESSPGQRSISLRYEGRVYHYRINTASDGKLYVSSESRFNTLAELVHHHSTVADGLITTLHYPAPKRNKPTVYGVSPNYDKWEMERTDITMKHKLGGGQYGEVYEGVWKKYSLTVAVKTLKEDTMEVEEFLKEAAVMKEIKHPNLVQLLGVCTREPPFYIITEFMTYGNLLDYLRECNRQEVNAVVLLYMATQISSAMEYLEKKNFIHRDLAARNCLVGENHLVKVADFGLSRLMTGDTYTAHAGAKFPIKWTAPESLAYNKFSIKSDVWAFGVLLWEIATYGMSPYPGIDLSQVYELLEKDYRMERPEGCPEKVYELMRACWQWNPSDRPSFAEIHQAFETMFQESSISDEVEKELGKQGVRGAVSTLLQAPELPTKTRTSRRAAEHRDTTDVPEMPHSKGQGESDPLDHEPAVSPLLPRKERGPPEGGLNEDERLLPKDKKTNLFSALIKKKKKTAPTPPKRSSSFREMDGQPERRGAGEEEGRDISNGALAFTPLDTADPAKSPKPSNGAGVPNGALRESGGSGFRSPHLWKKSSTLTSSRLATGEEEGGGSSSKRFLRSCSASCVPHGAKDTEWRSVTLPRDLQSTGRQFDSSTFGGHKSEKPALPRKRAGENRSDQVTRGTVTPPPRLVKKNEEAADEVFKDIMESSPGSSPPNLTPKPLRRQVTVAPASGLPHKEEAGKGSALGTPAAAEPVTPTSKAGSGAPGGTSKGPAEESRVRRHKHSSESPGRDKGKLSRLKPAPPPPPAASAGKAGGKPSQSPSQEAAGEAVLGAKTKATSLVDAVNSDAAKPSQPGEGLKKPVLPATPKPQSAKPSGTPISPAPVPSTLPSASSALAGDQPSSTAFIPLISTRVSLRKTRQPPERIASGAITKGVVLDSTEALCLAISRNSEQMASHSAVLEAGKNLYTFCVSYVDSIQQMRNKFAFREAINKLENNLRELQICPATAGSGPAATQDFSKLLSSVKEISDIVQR
T2 sequence (P36888 with tags, fused parts or gaps with the stated changes limits assumed): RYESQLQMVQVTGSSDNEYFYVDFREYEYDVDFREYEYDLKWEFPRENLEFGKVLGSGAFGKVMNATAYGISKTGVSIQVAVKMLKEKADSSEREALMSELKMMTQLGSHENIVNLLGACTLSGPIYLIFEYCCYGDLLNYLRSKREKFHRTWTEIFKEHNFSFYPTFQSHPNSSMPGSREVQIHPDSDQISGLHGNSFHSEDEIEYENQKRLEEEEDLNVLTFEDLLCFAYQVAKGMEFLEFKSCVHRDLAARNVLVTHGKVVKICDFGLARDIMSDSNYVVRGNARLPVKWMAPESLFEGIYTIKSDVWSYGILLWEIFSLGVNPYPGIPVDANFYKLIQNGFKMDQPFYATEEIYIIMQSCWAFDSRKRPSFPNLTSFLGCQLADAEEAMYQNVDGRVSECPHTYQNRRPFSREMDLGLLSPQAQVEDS
T1 sequence (P36888 with tags, fused parts or gaps INS595EY limits assumed): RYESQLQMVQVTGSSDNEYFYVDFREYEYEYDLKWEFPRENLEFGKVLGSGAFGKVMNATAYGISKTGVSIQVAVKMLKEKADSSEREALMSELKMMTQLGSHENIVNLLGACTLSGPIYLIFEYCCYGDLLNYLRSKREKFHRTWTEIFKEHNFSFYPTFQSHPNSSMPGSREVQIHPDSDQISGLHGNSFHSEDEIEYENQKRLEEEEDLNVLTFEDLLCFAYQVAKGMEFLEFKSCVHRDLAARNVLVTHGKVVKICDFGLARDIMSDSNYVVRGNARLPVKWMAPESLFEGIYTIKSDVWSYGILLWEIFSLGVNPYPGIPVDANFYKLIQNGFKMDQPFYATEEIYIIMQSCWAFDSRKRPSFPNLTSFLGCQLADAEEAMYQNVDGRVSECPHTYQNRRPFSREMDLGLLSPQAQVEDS
T12 sequence (P12931 whole entry): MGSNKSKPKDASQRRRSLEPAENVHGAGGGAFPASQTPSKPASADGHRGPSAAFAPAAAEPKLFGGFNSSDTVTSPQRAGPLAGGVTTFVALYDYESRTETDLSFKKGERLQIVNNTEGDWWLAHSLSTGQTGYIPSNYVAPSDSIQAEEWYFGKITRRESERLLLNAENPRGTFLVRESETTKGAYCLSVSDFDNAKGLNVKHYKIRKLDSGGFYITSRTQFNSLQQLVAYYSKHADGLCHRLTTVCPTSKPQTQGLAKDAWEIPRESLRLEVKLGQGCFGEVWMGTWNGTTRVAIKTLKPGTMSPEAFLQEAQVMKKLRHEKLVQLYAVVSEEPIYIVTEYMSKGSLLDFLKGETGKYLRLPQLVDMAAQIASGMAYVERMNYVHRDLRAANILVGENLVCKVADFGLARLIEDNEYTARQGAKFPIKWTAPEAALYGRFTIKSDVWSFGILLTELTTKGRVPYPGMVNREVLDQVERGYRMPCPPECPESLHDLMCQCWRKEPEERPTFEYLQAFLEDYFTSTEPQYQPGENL

CCN1CCN(Cc2cc(C(=O)Nc3ccc4[nH]c(-c5ccc6cn[nH]c6c5)nc4c3)cc(C(F)(F)F)c2)CC1 [Compound 8r, N-(2-(1H-indazol-6-yl)-1H-benzo[di]imidazol-5-yl)-3-((4-ethylpiperazin-1-yl)methyl)-5-(trifluoromethyl)benzamide]
% Inhibition [1]: 88.0%
IC50 [2]: 24.8 nM
inhibition at 1 µM ([2]; FLT3 (R595_E596insEY), single dose 1 μM): 93.9%
inhibition at 1 µM ([3]; FLT3 (Y591_V592ins[…]), single dose 1 μM): 90.9%
IC50 ([3]; read-out: IC50 FLT3 (Y591_V592 ins VDFREYEYD)): 49.5 nM
% Inhibition [4]: 88.0%
inhibition at 1 µM ([5]; ABL1, single dose 1 μM): 18.4%
IC50 ([5]; Table 4): 3090 nM
inhibition at 1 µM [6]: 3.09%
inhibition at 1 µM [7]: 7.5%
inhibition at 1 µM [8]: 1.88%
inhibition at 1 µM [9]: 6.64%
inhibition at 1 µM [10]: 1%
inhibition at 1 µM [11]: 17.5%
inhibition at 1 µM [12]: 7.3%
inhibition at 1 µM [13]: 6.53%
inhibition at 1 µM [14]: 1.94%
inhibition at 1 µM ([15]; CAMKK1, single dose 1 μM): 32.5%
IC50 ([15]; Table 4): 395 nM
inhibition at 1 µM [16]: 0.274%
inhibition at 1 µM [17]: 0%
inhibition at 1 µM [18]: 0.531%
inhibition at 1 µM [19]: 6.14%
inhibition at 1 µM [20]: 7.12%
inhibition at 1 µM [21]: 0%
inhibition at 1 µM [22]: 5.69%
inhibition at 1 µM [23]: 5.39%
inhibition at 1 µM [24]: 6.99%
inhibition at 1 µM [25]: 6.01%
inhibition at 1 µM ([26]; TRKC, single dose 1 μM): 48.3%
IC50 ([26]; Table 4): 1520 nM
inhibition at 1 µM [27]: 9.76%
inhibitory activity for most other kinases [28]: less than 20%
melting point: 265 to 267 °C
inhibition at 1 µM [29]: 7.47%
inhibition at 1 µM [30]: 19%
IC50 ([30]; read-out: IC50 c-Kit, Table 4): 4570 nM
inhibition at 1 µM [31]: 0%
inhibition at 1 µM [32]: 18%
inhibition at 1 µM [33]: 7.25%
inhibition at 1 µM [34]: 6.42%
inhibition at 1 µM [35]: 7.4%
inhibition at 1 µM [36]: 7.34%
inhibition at 1 µM [37]: 7.4%
